Assays:
[1] = Inhibition of Saccharomyces cerevisiae alpha-glucosidase using p-nitrophenyl-alpha-D-glucopyranoside as substrate preincubated for 15 to 20 mins followed by substrate addition measured after 45 to 60 mins by spectrophotometric analysis
[2] = test system: Saccharomyces cerevisiae; assay: Potency index, ratio of acarbose IC50 to compound IC50 for inhibition of Saccharomyces cerevisiae alpha-glucosidase
[3] = test system: Saccharomyces cerevisiae; assay: Potency index, ratio of miglitol IC50 to compound IC50 for inhibition of Saccharomyces cerevisiae alpha-glucosidase
[4] = test system: Saccharomyces cerevisiae; assay: Potency index, ratio of voglibose IC50 to compound IC50 for inhibition of Saccharomyces cerevisiae alpha-glucosidase

SMILES | IC50 [1] [µM] | other results
O=C(CCc1ccc(C(F)(F)F)cc1)N1CC[C@@H](O)[C@@H](O)C1 (relative stereo) | 742 | 
O=C(/C=C/c1ccc(O)cc1)N1CC[C@@H](O)[C@@H](O)C1 (relative stereo) | 442 | 
O=C(CCc1ccc(NS(=O)(=O)c2ccc(C(F)(F)F)cc2)cc1)N1CC[C@H](O)[C@H](O)C1 (relative stereo) | 103 | Ratio IC50 [2]: 3 to 4; Ratio IC50 [3]: 3 to 4; Ratio IC50 [4]: 3 to 4
CC(C)(C)OC(=O)Nc1ccc(CCC(=O)N2CC[C@@H](O)[C@@H](O)C2)cc1 (relative stereo) | 663 | 
Nc1ccc(CCC(=O)N2CC[C@H](O)[C@@H](O)C2)cc1 (relative stereo) | 289 | 
O=C(/C=C/c1ccsc1)Nc1ccc(CCC(=O)N2CC[C@H](O)[C@H](O)C2)cc1 (relative stereo) | 667 | 
OCC(CO)N[C@H]1C[C@](O)(CO)[C@@H](O)[C@H](O)[C@H]1O [VOGLIBOSE] | 325 | 
O=C(CCc1ccc(O)cc1)Nc1ccc(CCC(=O)N2CC[C@H](O)[C@H](O)C2)cc1 (relative stereo) | 284 | 
O=C(Nc1ccc(CCC(=O)N2CC[C@H](O)[C@H](O)C2)cc1)c1ccsc1 (relative stereo) | 267 | 
C[C@H]1O[C@H](O[C@H]2[C@H](O)[C@@H](O)[C@@H](O[C@H]3[C@H](O)[C@@H](O)C(O)O[C@@H]3CO)O[C@@H]2CO)[C@H](O)[C@@H](O)[C@@H]1N[C@H]1C=C(CO)[C@@H](O)[C@H](O)[C@H]1O (stereo partly specified) [ACARBOSE] | 360 | 
CC(C)(C)OC(=O)Nc1ccc(CCC(=O)Nc2ccc(CCC(=O)N3CC[C@H](O)[C@H](O)C3)cc2)cc1 (relative stereo) | 383 | 
O=C(CCc1ccccc1)N1CC[C@@H](O)[C@@H](O)C1 (relative stereo) | 994 | 
Cn1c(CCC(=O)N2CC[C@@H](O)[C@@H](O)C2)cc2ccccc21 (relative stereo) | 389 | 
OCCN1C[C@H](O)[C@@H](O)[C@H](O)[C@H]1CO [MIGLITOL] | 462 | 
O=C(CCc1ccc(O)cc1)N1CC[C@H](O)[C@@H](O)C1 (relative stereo) | 422 | 
O=C(CCc1ccc(O)cc1)N1CC[C@@H](O)[C@@H](O)C1 (relative stereo) | 292 | 
O=C(/C=C/c1ccc(C(F)(F)F)cc1)Nc1ccc(CCC(=O)N2CC[C@H](O)[C@H](O)C2)cc1 (relative stereo) | 890 | 
Nc1ccc(CCC(=O)Nc2ccc(CCC(=O)N3CC[C@H](O)[C@H](O)C3)cc2)cc1 (relative stereo) | 247 | 
O=C(CCc1ccc(O)cc1)Nc1ccc(CCC(=O)N2CC[C@@H](O)[C@H](O)C2)cc1 (relative stereo) | 488 | 
O=S(=O)(c1ccc(OC(F)(F)F)cc1)N1CC[C@@H](O)[C@@H](O)C1 (relative stereo) | 465 | 

The remaining molecules from weak to strong by IC50 [1], led by results:

IC50 [1] [µM] | SMILES | other results
888 | O=C(/C=C/c1ccsc1)N1CC[C@@H](O)[C@@H](O)C1 (relative stereo) | 
749 | O=C(CCc1ccc(NS(=O)(=O)c2ccc(F)cc2)cc1)N1CC[C@H](O)[C@H](O)C1 (relative stereo) | 
746 | CC(C)(C)OC(=O)Nc1ccc(CCC(=O)Nc2ccc(CCC(=O)N3CC[C@@H](O)[C@H](O)C3)cc2)cc1 (relative stereo) | 
710 | O=C(/C=C/c1ccc(C(F)(F)F)cc1)Nc1ccc(CCC(=O)N2CC[C@@H](O)[C@H](O)C2)cc1 (relative stereo) | 
594 | O=C(CCc1ccc(N(S(=O)(=O)c2ccc(C(F)(F)F)cc2)S(=O)(=O)c2ccc(C(F)(F)F)cc2)cc1)N1CC[C@H](O)[C@H](O)C1 (relative stereo) | 
479 | O=C(CCc1ccc(C(F)(F)F)cc1)Nc1ccc(CCC(=O)N2CC[C@H](O)[C@H](O)C2)cc1 (relative stereo) | 
384 | Nc1ccc(CCC(=O)Nc2ccc(CCC(=O)N3CC[C@@H](O)[C@H](O)C3)cc2)cc1 (relative stereo) | 
349 | O=C(/C=C/c1ccc(F)cc1)Nc1ccc(CCC(=O)N2CC[C@H](O)[C@H](O)C2)cc1 (relative stereo) | 
211 | Nc1ccc(CCC(=O)N2CC[C@@H](O)[C@@H](O)C2)cc1 (relative stereo) | Ratio IC50 [2]: 2 to 3; Ratio IC50 [3]: 2 to 3; Ratio IC50 [4]: 2 to 3
152 | O=C(CCc1ccsc1)N1CC[C@H](O)[C@@H](O)C1 (relative stereo) | 

— ChEMBL document CHEMBL4196068, “Synthesis, molecular modeling and evaluation of α-glucosidase inhibition activity of 3,4-dihydroxy piperidines” (Eur J Med Chem, 2018)
